In ChEMBL document CHEMBL4321817, “A Chemical Probe for Tudor Domain Protein Spindlin1 to Investigate Chromatin Function” (J Med Chem, 2019):

Assays:
[1] = target: T1, Histone-lysine N-methyltransferase EHMT2 (Homo sapiens, UniProt Q96KQ7); test: Inhibition of G9a (unknown origin) by scintillation proximity Assay
T1 sequence (Q96KQ7 whole entry): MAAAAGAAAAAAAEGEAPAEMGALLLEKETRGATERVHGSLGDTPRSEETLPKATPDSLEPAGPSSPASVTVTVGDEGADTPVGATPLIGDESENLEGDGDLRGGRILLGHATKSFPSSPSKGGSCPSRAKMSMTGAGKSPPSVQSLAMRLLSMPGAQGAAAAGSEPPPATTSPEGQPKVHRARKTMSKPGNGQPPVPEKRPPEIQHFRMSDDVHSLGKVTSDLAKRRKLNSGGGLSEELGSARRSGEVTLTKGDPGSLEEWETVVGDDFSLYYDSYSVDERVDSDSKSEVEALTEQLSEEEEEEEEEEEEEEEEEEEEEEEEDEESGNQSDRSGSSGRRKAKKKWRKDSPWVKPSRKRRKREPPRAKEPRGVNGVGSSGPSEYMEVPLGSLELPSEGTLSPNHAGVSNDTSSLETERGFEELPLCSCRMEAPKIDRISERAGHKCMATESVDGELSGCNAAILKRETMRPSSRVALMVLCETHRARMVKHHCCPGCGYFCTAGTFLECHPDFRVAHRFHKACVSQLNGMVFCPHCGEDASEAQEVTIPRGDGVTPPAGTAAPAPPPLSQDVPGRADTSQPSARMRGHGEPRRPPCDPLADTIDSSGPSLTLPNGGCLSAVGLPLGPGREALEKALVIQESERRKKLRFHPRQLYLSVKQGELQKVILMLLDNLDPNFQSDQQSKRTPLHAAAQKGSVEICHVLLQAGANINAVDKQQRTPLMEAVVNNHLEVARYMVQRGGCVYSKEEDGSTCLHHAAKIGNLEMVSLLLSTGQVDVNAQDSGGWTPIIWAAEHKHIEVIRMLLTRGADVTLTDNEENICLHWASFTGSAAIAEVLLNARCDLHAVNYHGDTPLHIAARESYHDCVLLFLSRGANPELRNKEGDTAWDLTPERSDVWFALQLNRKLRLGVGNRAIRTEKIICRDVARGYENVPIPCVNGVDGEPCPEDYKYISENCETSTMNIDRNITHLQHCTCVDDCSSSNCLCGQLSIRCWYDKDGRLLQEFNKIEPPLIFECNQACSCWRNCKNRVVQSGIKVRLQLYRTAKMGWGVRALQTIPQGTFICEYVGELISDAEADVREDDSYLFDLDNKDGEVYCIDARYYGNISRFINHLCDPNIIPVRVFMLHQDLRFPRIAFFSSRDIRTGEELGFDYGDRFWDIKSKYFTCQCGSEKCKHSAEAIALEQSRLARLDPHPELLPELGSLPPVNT

[2] = target: Spindlin-1 (Homo sapiens, UniProt Q9Y657); test: Displacement of trimethylated biotinylated histone H3 peptide from recombinant human His-tagged SPIN1 (26 to 262 residues) expressed in Escherichia coli BL21 (DE3) incubated for 30 mins followed by peptide addition and measured after 1 hr by Alphascreen method
[3] = system: U2OS; test: Cytotoxicity against human U2OS cells assessed as reduction in cell viability at >3 uM incubated for 2 days by propidium iodide staining based assay; details: 48 h
[4] = Stability in moue liver microsomes assessed as intrinsic clearance; assay type: ADME, Microsome; details: mouse, read-out: CLH
[5] = Stability in human liver microsomes assessed as half life; assay type: ADME, Microsome
[6] = Stability in mouse liver microsomes assessed as half life; assay type: ADME, Microsome
[7] = Stability in human liver microsomes assessed as intrinsic clearance; assay type: ADME, Microsome; details: read-out: CLH
[8] = Apparent permeability from apical side to basolateral side in human Caco2 cells; assay type: ADME, cell-based; details: Caco-2
[9] = Solubility of compound at >100 uM; assay type: physicochemical
[10] = Apparent permeability from basolateral side to apical side in human Caco2 cells; assay type: ADME, cell-based; details: Caco-2

Spindlin-1, sequence (Q9Y657 whole entry, the tested form may be a part): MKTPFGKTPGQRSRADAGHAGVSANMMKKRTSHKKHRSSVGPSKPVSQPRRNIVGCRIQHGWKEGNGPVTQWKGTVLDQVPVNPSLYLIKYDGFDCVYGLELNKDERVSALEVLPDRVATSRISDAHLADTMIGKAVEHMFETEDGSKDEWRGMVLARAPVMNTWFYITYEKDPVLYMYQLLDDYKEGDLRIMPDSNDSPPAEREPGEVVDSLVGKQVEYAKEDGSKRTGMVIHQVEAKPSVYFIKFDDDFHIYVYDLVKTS

Compound | IC50 ([1]; read-out: IC50) [µM] | IC50 [2] [µM] | Activity [3] | other results
CC(C)Oc1cc2c(cc1OCCCN1CCCC1)N=C(N)C21CCCC1 | 0.9 | 8.91 |  | 
COc1cc2c(cc1OCCCN1Cc3ccccc3C1)N=C(N)C21CCCC1 | 10 | 0.66 |  | 
NC1=Nc2cc(OCCCN3CCCC3)c(OCC3CC3)cc2C12CCCC2 | 3.1 | 1.12 |  | 
COc1cc2c(cc1OCCCN1CCCC1)N=C(N)C21CCCC1 | 0.006 |  |  | 
NC1=Nc2cc(OCCCN3Cc4ccccc4C3)c(OCC3CC3)cc2C12CCCC2 |  |  | Toxic | IC50 [1]: Not Active
COc1ccc2c(c1)CN(CCCOc1cc3c(cc1OC)C1(CCCC1)C(N)=N3)C2 |  | 0.6 |  | 
CC1(C)C(N)=Nc2cc(OCCCN3Cc4ccccc4C3)c(OCC3CC3)cc21 |  |  | Toxic | IC50 [1]: Not Active
CC1(C)C(N)=Nc2cc(OCCCN3Cc4ccc(OCCc5cn(CC(=O)N6CCC(CCN7CCCC7)CC6)nn5)cc4C3)c(OCC3CC3)cc21 |  |  | Non-Toxic | microsomal CLint [4]: 37.4 µL/min/mg; half-life [5]: 68.4 min; half-life [6]: 37.1 min; microsomal CLint [7]: 20.3 µL/min/mg; Papp A→B [8]: 6.59 ×10⁻⁶ cm/s; solubility [9]: Soluble; Papp B→A [10]: 6.07 ×10⁻⁶ cm/s
COc1cc2c(cc1OCCCN1Cc3cccc(OC)c3C1)N=C(N)C21CCCC1 |  | 6.65 |  | 
CCOc1cc2c(cc1OCCCN1CCCC1)N=C(N)C21CCCC1 | 0.12 |  |  | 
COc1ccc2c(c1)CN(CCCOc1cc3c(cc1OCC1CC1)C1(CCCC1)C(N)=N3)C2 |  | 0.34 |  | 
CC1(C)C(N)=Nc2cc(OCCCCN3Cc4ccccc4C3)c(OCC3CC3)cc21 |  | 6.92 | Toxic | IC50 [1]: Not Active
CC1(C)C(N)=Nc2cc(OCCCCN3Cc4ccc(OCc5cn(CC(=O)N6CCC(CCN7CCCC7)CC6)nn5)cc4C3)c(OCC3CC3)cc21 |  |  | Non-Toxic | 
NC1=Nc2cc(OCCCCN3Cc4ccccc4C3)c(OCC3CC3)cc2C12CCCC2 |  | 6.22 | Toxic | IC50 [1]: Not Active
